In brackets after ≈: the same amount, converted by molar mass. No end group written: not given here.
Experiments:
[1] = test system: H358 lung adenocarcinoma cells; assay: Live-cell confocal microscopy with fluorescein-labeled peptides; format: cell-based, human; conditions: 5 uM, compared to SEQ ID NO: 10
Method: Human tumor cell lines (e.g., H358 or HPAF-II) were seeded into LabTek II culture chambers in DMEM media supplemented with 10% fetal calf serum and grown overnight at 37° C. under standard cell culture conditions. The following day, media was replaced with media containing 5 uM of fluorescein-labeled peptide and incubated for 4 hours at 37° C. The cells were washed, stained with NucBlue Hoechst 33342 and Dextran 10k Alexa647, then imaged on a confocal microscope. The fluorescent peptides were visualized with a 488 nm laser and is shown in green in FIGS. 34A-B.

[2] = Circular dichroism spectra and thermal melting at 222 nm; format: physicochemical; conditions: for effect of mutation on peptide secondary structure by CD: pH 12, compared to 225-3; for Tm: CD at 222 nm
RalA = molecular target: T1, RalA (Homo sapiens, UniProt P11233); assay: Yeast surface display binding to RalA; conditions: FIG. 38A-B
T1 sequence (P11233 1-206): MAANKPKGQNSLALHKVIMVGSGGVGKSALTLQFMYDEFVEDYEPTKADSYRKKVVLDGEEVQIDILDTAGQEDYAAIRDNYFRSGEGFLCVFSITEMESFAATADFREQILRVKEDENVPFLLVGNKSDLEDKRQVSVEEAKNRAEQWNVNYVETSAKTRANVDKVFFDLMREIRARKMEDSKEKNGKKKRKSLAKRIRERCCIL
Source text: (§1) Experimental for yeast display assays were similar to those used for FIG. 9. MY01 peptide of SEQ ID NO: 43 corresponds to the indicated high-binding population in FIG. 38C. Purification of the RalA protein was similar to the methods used for KRas constructs as discussed previously.

KRas = KRas (Homo sapiens, UniProt P01116, G12V); assay: Yeast surface display binding to KRas (FACS)
GppNHp-bound Rapla = GppNHp-bound Rapla (Homo sapiens, UniProt P62834); conditions: Rapla versus Ras
[3] = not told
[4] = test system: endogenous Ras in Capan-1 cell lysate; assay: Peptide pulldown of Ras in Capan-1 cell lysate; format: binding, human; conditions: for pulldown of endogenous Ras by biotinylated peptide: 5 μM peptide, streptavidin beads, western blot
Myc/Max heterodimer = Myc/Max heterodimer (Homo sapiens, UniProt P01106+P61244); assay: Yeast surface display binding to Myc/Max; conditions: FIG. 38C
Source text: as §1
Purification of the Myc/Max proteins was done as follows. A bicistronic pET vector containing His6-yBBr-TEV-Myc (residues 353-434) and untagged Max (residues 22-102) was transformed into chemically competent BL21 cells. The cells were grown to OD600=0.7, induced with 0.25 mM IPTG for 5 hours at 30° C., then harvested and resuspended in lysis buffer (20 mM HEPES pH 7.5, 500 mM KCl, 5% glycerol) prior to snap-freezing in liquid nitrogen. For purification, the pellet was thawed, raised to 40 ml in the same buffer, and mixed with a Roche Complete EDTA-free protease inhibitor tablet. The cells were lysed with a tip sonicator (VirSonic, 6 cycles of 10 s on, 15 s off at 6.5 power level), then pelleted at 30,000×g for 30 minutes and filtered through a 0.45 uM Tuffryn membrane (Pall Corporation). The clarified lysate was added to 2 ml of HisPur Ni-NTA resin (Thermo Pierce) that had been equilibrated with the same buffer, and drained by gravity. The column was washed with 20 ml of buffer, then protein was eluted with buffer containing 150 mM imidazole and some protease inhibitor. […]

Ras = Ras (Homo sapiens, UniProt P01116, G12V); assay: Ras binding of disulfide-protected peptide on addition of glutathione; conditions: Cys protected with 2,2′-Dipyridyldisulfide; 5 mM reduced glutathione
Source text: This cysteine is uncaged in the presence of […] glutathione levels to form the disulfide-bonded species, which is a better Ras binder. […] The experimentals are the similar to those described for FIG. 19.

[5] = Solubility of peptides in buffer
KRas (G12V).GppNHp = KRas (G12V).GppNHp (Homo sapiens, UniProt P01116, G12V); assay: Fluorescence polarization binding of FITC-labeled 225-3 and its alanine mutants to KRas; conditions: alanine mutants of 225-3
[6] = molecular target: T2, endogenous Ras / Raf RBD interaction (Homo sapiens, UniProt P01116, G12V); assay: GST-Raf RBD pulldown of Ras in Capan-1 cell lysate, competition by peptide; format: biochemical; conditions: lysate pre-incubated with 10 μM peptide
T2 construct: endogenous in cells; host or cells: Capan-1 lysate (Ras); the GST-Raf RBD was made in E. coli BL21 Rosetta I pLysS from pGEX-5X

[7] = molecular target: KRas (G12V) loaded with mant-GppNHp (Homo sapiens, UniProt P01116, G12V); assay: Mant nucleotide dissociation assay; format: biochemical; conditions: 1 μM Raf or peptide, 500 nM Ras, excess GppNHp

GCGGPRRPRYPGDAASIAALHAYWARLWNYLYRVA [SEQ ID NO: 28]
solubility / aggregates in microscopy [1]: increased solubility

I14A: single alanine point mutant I14A of the 225-3 peptide (GCGGPRRPRRPRYPGDDASAEDLHEYWARLWNYLYAVA) [Peptide I14A]
effect of mutation on peptide secondary structure by CD [2]: significant destabilizing effect

GPRRPRCPGDDASIRDLVMYWYRLYFYLEAVA [SEQ ID NO: 45]
binding to RalA (RalA): binds both RalA and KRas
binding to KRas (KRas; yeast surface display, FIG. 38): binds both RalA and KRas

CC[C@H](C)[C@H](NC(=O)[C@H](CO)NC(=O)[C@H](C)NC(=O)[C@H](CC(=O)O)NC(=O)[C@H](CC(=O)O)NC(=O)CNC(=O)[C@@H]1CCCN1C(=O)[C@H](Cc1ccc(O)cc1)NC(=O)[C@H](CCCNC(=N)N)NC(=O)[C@@H]1CCCN1C(=O)[C@H](CCCNC(=N)N)NC(=O)[C@H](CCCNC(=N)N)NC(=O)[C@@H]1CCCN1C(=O)[C@H](CCCNC(=N)N)NC(=O)[C@H](CCCNC(=N)N)NC(=O)[C@@H]1CCCN1C(=O)CNC(=O)CNC(=O)[C@H](CS)NC(=O)CN)C(=O)N[C@@H](CCC(=O)O)C(=O)N[C@@H](CC(=O)O)C(=O)N[C@@H](CC(C)C)C(=O)N[C@@H](Cc1c[nH]cn1)C(=O)N[C@@H](CCC(=O)O)C(=O)N[C@@H](Cc1ccc(O)cc1)C(=O)N[C@@H](Cc1c[nH]c2ccccc12)C(=O)N[C@@H](C)C(=O)N[C@@H](CCCNC(=N)N)C(=O)N[C@@H](CC(C)C)C(=O)N[C@@H](Cc1c[nH]c2ccccc12)C(=O)N[C@@H](CC(N)=O)C(=O)N[C@@H](Cc1ccc(O)cc1)C(=O)N[C@@H](CC(C)C)C(=O)N[C@@H](Cc1ccc(O)cc1)C(=O)N[C@@H](C)C(=O)N[C@H](C(=O)N[C@@H](C)C(=O)O)C(C)C [Peptide 225-3]
binding weaker than to Ras (GppNHp-bound Rapla): more than 100 fold
cell permeability [3]: somewhat cell permeable
Tm ([2]; pH 4.5): 57 °C
Tm ([2]; pH 12): 46.2 °C
pulldown of endogenous Ras by biotinylated peptide [4]: pulled down Ras
pulldown of endogenous Ras by biotinylated peptide after Raf RBD pre-incubation ([4]; lysate pre-incubated with Raf RBD (3 μM)): not when the lysate was pre-incubated with the Raf RBD

GPRRPRCPGDDASIRDLLKYWWRLRLYLLAVA [SEQ ID NO: 43]
binding to Myc/Max (Myc/Max heterodimer): binds

GCGGPRRPRYPGDDACEEDLHEYWARLWNYLYAVA [225-1 S13C/I14E]
binding of yeast-displayed peptide to KRas (KRas; 5 nM KRas, mutant pre-incubated with free 225-1): binds Ras with increased affinity

GCGGPRRPRRPRYPGDDASIEDLHEYAARLWNYLYAVA [Peptide W21A]
effect of mutation on peptide secondary structure by CD [2]: significant destabilizing effect

GCGGPRRPRYPGDDASIEDLHEYWARLWNYLYRVA [225-1 A30R]
selectivity KRas(GTP) vs KRas(GDP) (KRas; 500 nM each of Ras.GTP and Ras.GDP, two-colour FACS): more selective for KRas (GTP) than 225-1

GCGGPRRPRRPRYPGDDASIEDLHEYWARLANYLYAVA [Peptide W25A]
effect of mutation on peptide secondary structure by CD [2]: significant destabilizing effect

PRRPRCPGHAASIAALHAYWARLWNYLYRVR [Peptide 291-Q3]
change in Ras binding upon addition of reduced glutathione (Ras): increase in Ras binding

CC[C@H](C)[C@H](NC(=O)[C@H](CO)NC(=O)[C@H](C)NC(=O)[C@H](CC(=O)O)NC(=O)[C@H](CC(=O)O)NC(=O)CNC(=O)[C@@H]1CCCN1C(=O)[C@H](Cc1ccc(O)cc1)NC(=O)[C@H](CCCNC(=N)N)NC(=O)[C@@H]1CCCN1C(=O)[C@H](CCCNC(=N)N)NC(=O)[C@H](CCCNC(=N)N)NC(=O)[C@@H]1CCCN1C(=O)CNC(=O)CNC(=O)[C@H](CS)NC(=O)CN)C(=O)N[C@@H](CCC(=O)O)C(=O)N[C@@H](CC(=O)O)C(=O)N[C@@H](CC(C)C)C(=O)N[C@@H](Cc1c[nH]cn1)C(=O)N[C@@H](CCC(=O)O)C(=O)N[C@@H](Cc1ccc(O)cc1)C(=O)N[C@@H](Cc1c[nH]c2ccccc12)C(=O)N[C@@H](C)C(=O)N[C@@H](CCCNC(=N)N)C(=O)N[C@@H](CC(C)C)C(=O)N[C@@H](Cc1c[nH]c2ccccc12)C(=O)N[C@@H](CC(N)=O)C(=O)N[C@@H](Cc1ccc(O)cc1)C(=O)N[C@@H](CC(C)C)C(=O)N[C@@H](Cc1ccc(O)cc1)C(=O)N[C@@H](C)C(=O)N[C@H](C(=O)N[C@@H](C)C(=O)O)C(C)C [Peptide 225-1]
solubility [5]: 100 to 200 µM (≈ 407 to 814 µg/mL)

GPRRPRCPGDDASISDLLLYWLRLDRYLWAVA [SEQ ID NO: 44]
binding to RalA (RalA): binds

GCGGPRRPRRPRYPGDDASIEDLHEYWARLWAYLYAVA [Peptide N26A]
reduction in measured binding affinity relative to 225-3 (KRas (G12V).GppNHp): at least 100 fold
effect on pulldown of Ras by GST-tagged Raf RBD [6]: did not disrupt this pulldown
effect of mutation on peptide secondary structure by CD [2]: unchanged compared to 225-3
pulldown of endogenous Ras by biotinylated peptide [4]: not pulled down
effect on rate of mantGppNHp dissociation from KRas [7]: did not decrease the rate of dissociation

— patent US11377476B2, “Ras inhibitory peptides and uses thereof” (President and Fellows of Harvard College, priority 2014, dated 2022)
